Reference: the supplement of paper PMC12076712

Columns and labels:
Assay in all cases: pIC50, kinobeads binding competition
CDK5 = CDK5 (UniProt Q00535)
Method in brief: (§1)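 Live Jurkat cells were treated with nine compound concentrations (top 30 μM, 1:4 steps) or DMSO for 60 min at 37 °C before lysis. Alternatively, Jurkat lysate or a 1:1:1:1 HEK293/K-562/HepG2/placenta lysate mix was incubated with nine concentrations (top 30 μM, 1:5 steps) for 60 min at 4 °C. Kinobeads-bound proteins were digested and quantified by TMT10 LC-MS/MS. pIC50 came from logistic dose-response fits (R drc package) of fold changes versus DMSO, in biological duplicates.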

UniProt Q15208 = target: UniProt Q15208
Method in brief: as §1

BRSK2 = target: T1, BRSK2 (UniProt Q8IWQ3)
T1 sequence (whole entry): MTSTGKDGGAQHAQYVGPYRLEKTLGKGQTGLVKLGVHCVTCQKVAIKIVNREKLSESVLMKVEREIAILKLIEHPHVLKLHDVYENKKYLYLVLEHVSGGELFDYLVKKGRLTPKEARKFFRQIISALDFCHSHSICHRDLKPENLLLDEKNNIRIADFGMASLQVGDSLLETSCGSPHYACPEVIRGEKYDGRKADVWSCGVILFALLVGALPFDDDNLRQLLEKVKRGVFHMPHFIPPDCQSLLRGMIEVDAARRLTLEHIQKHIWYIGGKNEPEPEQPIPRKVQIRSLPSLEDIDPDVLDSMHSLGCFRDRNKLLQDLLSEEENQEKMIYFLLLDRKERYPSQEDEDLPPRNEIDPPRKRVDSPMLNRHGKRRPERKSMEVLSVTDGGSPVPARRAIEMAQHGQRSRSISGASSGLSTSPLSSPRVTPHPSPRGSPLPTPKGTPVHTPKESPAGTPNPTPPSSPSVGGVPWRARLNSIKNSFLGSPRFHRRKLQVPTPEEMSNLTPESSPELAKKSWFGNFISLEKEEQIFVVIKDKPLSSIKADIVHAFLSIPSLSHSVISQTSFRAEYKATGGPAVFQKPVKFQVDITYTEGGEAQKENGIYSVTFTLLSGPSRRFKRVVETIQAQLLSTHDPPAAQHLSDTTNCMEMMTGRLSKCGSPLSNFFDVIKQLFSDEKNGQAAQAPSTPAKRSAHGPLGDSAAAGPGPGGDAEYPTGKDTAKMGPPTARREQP
Method in brief: as §1

TP53RK = target: T2, TP53RK (UniProt Q96S44)
T2 sequence (whole entry): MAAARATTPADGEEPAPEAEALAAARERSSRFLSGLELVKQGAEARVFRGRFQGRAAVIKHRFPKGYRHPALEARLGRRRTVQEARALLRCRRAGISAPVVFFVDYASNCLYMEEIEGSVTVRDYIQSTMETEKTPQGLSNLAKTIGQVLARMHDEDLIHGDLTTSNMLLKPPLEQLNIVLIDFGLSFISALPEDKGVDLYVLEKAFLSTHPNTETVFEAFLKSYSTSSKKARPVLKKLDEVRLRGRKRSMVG
Method in brief: as §1

BUB1 = BUB1 (UniProt O43683)
Method in brief: as §1

LATS1 = target: T3, LATS1 (UniProt O95835)
T3 sequence (whole entry): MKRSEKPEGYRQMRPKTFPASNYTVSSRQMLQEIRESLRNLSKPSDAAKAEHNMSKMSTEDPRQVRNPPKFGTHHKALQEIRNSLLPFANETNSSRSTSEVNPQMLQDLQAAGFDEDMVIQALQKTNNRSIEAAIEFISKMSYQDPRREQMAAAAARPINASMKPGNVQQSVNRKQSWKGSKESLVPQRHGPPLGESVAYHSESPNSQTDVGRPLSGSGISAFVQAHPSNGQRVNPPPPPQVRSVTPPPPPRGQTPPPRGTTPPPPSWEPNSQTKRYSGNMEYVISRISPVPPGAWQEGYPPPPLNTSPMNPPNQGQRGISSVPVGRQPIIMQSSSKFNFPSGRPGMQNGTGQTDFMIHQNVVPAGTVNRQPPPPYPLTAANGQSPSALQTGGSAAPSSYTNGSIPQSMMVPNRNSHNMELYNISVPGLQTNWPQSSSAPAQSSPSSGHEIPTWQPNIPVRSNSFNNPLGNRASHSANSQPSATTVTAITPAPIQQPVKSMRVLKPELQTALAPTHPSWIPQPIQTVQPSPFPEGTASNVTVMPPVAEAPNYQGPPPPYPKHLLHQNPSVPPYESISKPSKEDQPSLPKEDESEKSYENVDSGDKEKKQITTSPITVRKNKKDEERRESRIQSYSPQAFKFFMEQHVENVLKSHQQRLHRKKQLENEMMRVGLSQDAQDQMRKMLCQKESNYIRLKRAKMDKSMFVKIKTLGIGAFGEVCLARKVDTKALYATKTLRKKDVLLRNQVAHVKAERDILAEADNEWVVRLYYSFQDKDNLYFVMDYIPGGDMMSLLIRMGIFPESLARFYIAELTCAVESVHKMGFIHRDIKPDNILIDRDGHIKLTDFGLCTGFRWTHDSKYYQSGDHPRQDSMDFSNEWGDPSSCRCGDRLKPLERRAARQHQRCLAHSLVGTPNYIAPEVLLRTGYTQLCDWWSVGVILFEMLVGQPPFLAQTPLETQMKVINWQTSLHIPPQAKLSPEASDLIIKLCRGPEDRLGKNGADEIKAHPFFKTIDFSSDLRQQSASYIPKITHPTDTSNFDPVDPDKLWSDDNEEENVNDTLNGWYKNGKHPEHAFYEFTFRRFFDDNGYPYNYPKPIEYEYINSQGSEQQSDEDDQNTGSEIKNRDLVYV
Method in brief: as §1

NEK7 = NEK7 (UniProt Q8TDX7)
Method in brief: as §1

Sequence of BUB1 (O43683 whole entry, looked up): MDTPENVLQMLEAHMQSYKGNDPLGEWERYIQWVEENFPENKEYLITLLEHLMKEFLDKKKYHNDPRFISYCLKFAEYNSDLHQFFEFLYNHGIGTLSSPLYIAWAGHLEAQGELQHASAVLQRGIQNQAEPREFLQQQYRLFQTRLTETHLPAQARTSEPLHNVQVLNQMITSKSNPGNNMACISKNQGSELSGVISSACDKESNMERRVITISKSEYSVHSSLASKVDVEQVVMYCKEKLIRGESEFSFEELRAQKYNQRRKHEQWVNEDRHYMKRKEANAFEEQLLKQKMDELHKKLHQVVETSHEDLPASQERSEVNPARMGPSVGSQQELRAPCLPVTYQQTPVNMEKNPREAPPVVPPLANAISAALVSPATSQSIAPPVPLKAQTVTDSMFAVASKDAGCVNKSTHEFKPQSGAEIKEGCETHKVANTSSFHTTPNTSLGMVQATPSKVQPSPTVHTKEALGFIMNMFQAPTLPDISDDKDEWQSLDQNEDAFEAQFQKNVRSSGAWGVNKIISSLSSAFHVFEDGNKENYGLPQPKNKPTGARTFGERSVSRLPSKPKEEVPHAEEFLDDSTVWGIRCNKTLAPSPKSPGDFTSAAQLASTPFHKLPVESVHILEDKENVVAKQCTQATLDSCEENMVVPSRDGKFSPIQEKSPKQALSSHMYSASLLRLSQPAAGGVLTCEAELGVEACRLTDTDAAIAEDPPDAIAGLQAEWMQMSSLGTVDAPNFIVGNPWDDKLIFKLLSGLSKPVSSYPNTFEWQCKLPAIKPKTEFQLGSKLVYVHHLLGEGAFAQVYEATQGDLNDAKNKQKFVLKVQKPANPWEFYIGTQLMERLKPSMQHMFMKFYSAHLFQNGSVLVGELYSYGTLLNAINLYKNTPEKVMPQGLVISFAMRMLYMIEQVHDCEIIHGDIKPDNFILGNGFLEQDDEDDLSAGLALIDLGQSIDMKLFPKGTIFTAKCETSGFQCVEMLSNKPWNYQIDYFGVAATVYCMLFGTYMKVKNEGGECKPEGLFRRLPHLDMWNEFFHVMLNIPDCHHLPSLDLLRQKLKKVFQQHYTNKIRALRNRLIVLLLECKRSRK
Sequence of CDK5 (Q00535 whole entry, looked up): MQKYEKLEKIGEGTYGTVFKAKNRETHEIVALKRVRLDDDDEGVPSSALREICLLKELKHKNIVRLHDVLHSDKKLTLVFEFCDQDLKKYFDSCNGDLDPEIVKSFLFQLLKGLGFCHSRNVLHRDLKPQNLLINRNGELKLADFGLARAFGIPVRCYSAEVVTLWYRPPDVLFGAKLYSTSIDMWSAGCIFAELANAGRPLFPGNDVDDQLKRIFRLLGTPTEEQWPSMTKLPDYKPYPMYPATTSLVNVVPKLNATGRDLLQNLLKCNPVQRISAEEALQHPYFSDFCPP
Sequence of NEK7 (Q8TDX7 whole entry, looked up): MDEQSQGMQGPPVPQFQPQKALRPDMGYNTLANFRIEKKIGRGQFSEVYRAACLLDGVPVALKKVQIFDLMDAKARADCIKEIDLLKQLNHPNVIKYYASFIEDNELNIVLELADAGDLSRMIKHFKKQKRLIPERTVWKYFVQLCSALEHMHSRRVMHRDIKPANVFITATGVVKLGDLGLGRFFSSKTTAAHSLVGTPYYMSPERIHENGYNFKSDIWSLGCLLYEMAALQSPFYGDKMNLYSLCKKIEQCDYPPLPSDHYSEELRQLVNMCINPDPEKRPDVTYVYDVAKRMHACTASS
Sequence of UniProt Q15208 (Q15208 whole entry, looked up): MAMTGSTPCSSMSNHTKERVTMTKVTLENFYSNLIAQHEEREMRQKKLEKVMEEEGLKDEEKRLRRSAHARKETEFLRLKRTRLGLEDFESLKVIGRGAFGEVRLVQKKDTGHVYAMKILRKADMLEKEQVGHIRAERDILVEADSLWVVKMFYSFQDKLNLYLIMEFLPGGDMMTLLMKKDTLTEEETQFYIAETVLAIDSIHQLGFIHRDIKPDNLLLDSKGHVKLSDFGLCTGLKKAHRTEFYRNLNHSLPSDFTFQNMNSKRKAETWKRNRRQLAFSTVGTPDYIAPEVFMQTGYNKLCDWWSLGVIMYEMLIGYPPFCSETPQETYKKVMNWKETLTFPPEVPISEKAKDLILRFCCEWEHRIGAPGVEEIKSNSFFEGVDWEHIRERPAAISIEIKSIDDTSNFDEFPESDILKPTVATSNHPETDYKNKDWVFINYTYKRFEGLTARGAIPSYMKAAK

Row | pIC50 (CDK5; cell material: Lysate mix) | pIC50 (UniProt Q15208; cell material: Lysate mix) | pIC50 (BRSK2; cell material: Lysate mix) | pIC50 (TP53RK; cell material: Lysate mix) | pIC50 (BUB1; cell material: Lysate mix) | pIC50 (LATS1; cell material: Lysate mix) | pIC50 (NEK7; cell material: Lysate mix) | SMILES | pIC50 (CDK5; cell material: Jurkat cells) | pIC50 (CDK5; cell material: Jurkat lysate) | pIC50 (UniProt Q15208; cell material: Jurkat cells) | pIC50 (UniProt Q15208; cell material: Jurkat lysate) | pIC50 (BRSK2; cell material: Jurkat cells) | pIC50 (BRSK2; cell material: Jurkat lysate) | pIC50 (TP53RK; cell material: Jurkat cells) | pIC50 (TP53RK; cell material: Jurkat lysate) | pIC50 (BUB1; cell material: Jurkat cells) | pIC50 (BUB1; cell material: Jurkat lysate) | pIC50 (LATS1; cell material: Jurkat cells) | pIC50 (LATS1; cell material: Jurkat lysate) | pIC50 (NEK7; cell material: Jurkat cells) | pIC50 (NEK7; cell material: Jurkat lysate)
1 | 4.92 | < 4.52 | < 4.52 | < 4.52 | < 4.52 | < 4.52 | < 4.52 | Cc1cc(Nc2cc(C(=O)NCCNC(=O)OC3CC/C=C/CCC3)nc(N3CCN(Cc4ccc(S(=O)(=O)F)cc4)CC3)n2)n[nH]1 (stereo not given) |  |  |  |  |  |  |  |  |  |  |  |  |  | 
2 | 6.02 | 5 | < 4.52 | < 4.52 | < 4.52 | 4.65 | < 4.52 | C#CCNC(=O)c1cc(Nc2cc(C)[nH]n2)nc(N2CCN(Cc3ccc(S(=O)(=O)F)cc3)CC2)n1 |  |  |  |  |  |  |  |  |  |  |  |  |  | 
3 | 5.12 | 5.11 | < 4.52 | < 4.52 | < 4.52 | < 4.52 | < 4.52 | O=C(NCCNC(=O)c1cc(Nc2cc(C3CC3)[nH]n2)nc(N2CCN(Cc3ccc(S(=O)(=O)F)cc3)CC2)n1)OC1CC/C=C/CCC1 (stereo not given) | 6.34 | 5.1 | 6.33 | 4.8 | 5.93 | < 4.52 | < 4.52 | < 4.52 | < 4.52 | < 4.52 | 5.78 | < 4.52 | 6.85 | < 4.52
4 | 5.93 | 4.8 | < 4.52 | < 4.52 | < 4.52 | < 4.52 | < 4.52 | CCNC(=O)c1cc(Nc2cc(C)[nH]n2)nc(N2CCN(Cc3ccc(S(=O)(=O)F)cc3)CC2)n1 |  |  |  |  |  |  |  |  |  |  |  |  |  | 
5 | 6.06 | 5.83 | < 4.52 | < 4.52 | < 4.52 | 5.3 | < 4.52 | CCNC(=O)c1cc(Nc2cc(C3CC3)[nH]n2)nc(N2CCN(Cc3ccc(S(=O)(=O)F)cc3)CC2)n1 |  |  |  |  |  |  |  |  |  |  |  |  |  | 

Row | SMILES | pIC50 (CDK5; cell material: Lysate mix) | pIC50 (UniProt Q15208; cell material: Lysate mix) | pIC50 (BRSK2; cell material: Lysate mix) | pIC50 (TP53RK; cell material: Lysate mix) | pIC50 (BUB1; cell material: Lysate mix) | pIC50 (LATS1; cell material: Lysate mix) | pIC50 (NEK7; cell material: Lysate mix) | pIC50 (CDK5; cell material: Jurkat cells) | pIC50 (CDK5; cell material: Jurkat lysate) | pIC50 (UniProt Q15208; cell material: Jurkat cells) | pIC50 (UniProt Q15208; cell material: Jurkat lysate) | pIC50 (BRSK2; cell material: Jurkat cells) | pIC50 (BRSK2; cell material: Jurkat lysate) | pIC50 (TP53RK; cell material: Jurkat cells) | pIC50 (TP53RK; cell material: Jurkat lysate) | pIC50 (BUB1; cell material: Jurkat cells) | pIC50 (BUB1; cell material: Jurkat lysate) | pIC50 (LATS1; cell material: Jurkat cells) | pIC50 (LATS1; cell material: Jurkat lysate) | pIC50 (NEK7; cell material: Jurkat cells) | pIC50 (NEK7; cell material: Jurkat lysate)
6 | C#CCNC(=O)c1cc(Nc2cc(C3CC3)[nH]n2)nc(N2CCN(Cc3ccc(S(=O)(=O)F)cc3)CC2)n1 | 6.48 | 6.2 | 4.84 | < 4.52 | < 4.52 | 5.56 | < 4.52 | 6.74 | 5.96 | 6.44 | 5.44 | 6.54 | < 4.52 | < 4.52 | < 4.52 | 5 | < 4.52 | 6.2 | 4.7 | 6.88 | < 4.52
